Experimental data: ChEMBL document CHEMBL3352290, “Interactions with polynucleotides and antitumor activity of amidino and imidazolinyl substituted 2-phenylbenzothiazole mesylates” (Eur J Med Chem, 2014)

Legend:
[1] = Binding affinity to poly A-poly U (unknown origin) assessed as change in melting temperature at pH7
[2] = Binding affinity to poly A-poly U (unknown origin) assessed as spectral changes at pH7 by UV/vis spectra
[3] = Binding affinity to poly(dA-dT)2 (unknown origin) assessed as binding constant at pH7 by UV/vis titration
Calf thymus DNA [4] = assay: Binding affinity to calf thymus DNA assessed as spectral changes at pH7 by UV/vis spectra; type: nucleic-acid assay; settings: Bos taurus
[5] = Binding affinity to poly C (unknown origin) assessed as binding constant at pH7 by UV/vis titration
[6] = Binding affinity to poly A (unknown origin) assessed as spectral changes by UV/vis spectra
[7] = Binding affinity to poly U (unknown origin) assessed as binding constant at pH7 by UV/vis titration
[8] = Binding affinity to poly U (unknown origin) assessed as spectral changes by UV/vis spectra
[9] = Binding affinity to poly G-poly C (unknown origin) assessed as binding constant at pH7 by UV/vis titration
[10] = Binding affinity to poly(dA-dT)2 (unknown origin) assessed as spectral changes at pH7 by UV/vis spectra
[11] = Binding affinity to poly G (unknown origin) assessed as spectral changes by UV/vis spectra
[12] = Binding affinity to poly A-poly U (unknown origin) assessed as binding constant at pH7 by UV/vis titration
[13] = Binding affinity to poly C (unknown origin) assessed as spectral changes by UV/vis spectra
[14] = Binding affinity to poly A (unknown origin) assessed as binding constant at pH7 by UV/vis titration
[15] = Binding affinity to poly(dA-dT)2 (unknown origin) assessed as change in melting temperature at pH7
Calf thymus DNA [16] = assay: Binding affinity to calf thymus DNA assessed as change in melting temperature at pH7; type: nucleic-acid assay; settings: Bos taurus
[17] = Binding affinity to poly G (unknown origin) assessed as binding constant at pH7 by UV/vis titration
Calf thymus DNA [18] = assay: Binding affinity to calf thymus DNA assessed as binding constant at pH7 by UV/vis titration; type: nucleic-acid assay; settings: Bos taurus
[19] = Binding affinity to poly G-poly C (unknown origin) assessed as spectral changes at pH7 by UV/vis spectra
[20] = Solubility of the compound in water at 22 degC; type: physicochemical
HeLa = assay: Antiproliferative activity against human HeLa cells assessed as growth inhibition after 72 hrs by MTT assay; type: functional
[21] = Antiproliferative activity against human MIAPaCa2 cells assessed as growth inhibition after 72 hrs by MTT assay; type: functional; settings: MIA PaCa-2, 72 h
[22] = Antiproliferative activity against human HCT116 cells assessed as growth inhibition after 72 hrs by MTT assay; type: functional; settings: HCT-116, 72 h
[23] = Antiproliferative activity against human MOLT4 cells assessed as growth inhibition after 72 hrs by MTT assay; type: functional; settings: MOLT-4, 72 h
SW-620 = assay: Antiproliferative activity against human SW620 cells assessed as growth inhibition after 72 hrs by MTT assay; type: functional; settings: SW-620, 72 h
[24] = Antiproliferative activity against human H460 cells assessed as growth inhibition after 72 hrs by MTT assay; type: functional; settings: NCI-H460, 72 h
Mus musculus = assay: Acute oral toxicity in po dosed BALB/C mouse after 24 hrs; type: organism-based; set-up: unit not given here; settings: in vivo
MCF7 = assay: Antiproliferative activity against human MCF7 cells assessed as growth inhibition after 72 hrs by MTT assay; type: functional; settings: MCF7, 72 h

| SMILES | ΔTm [1] [°C] | Activity [2] [%] | log Ks [3] | Activity (Calf thymus DNA [4]) [%] | log Ks [5] | Activity [6] [%] | log Ks [7] | Activity [8] [%] | log Ks [9] | Activity [10] [%] | Activity [11] [%] | log Ks [12] | Activity [13] [%] | log Ks [14] | ΔTm [15] [°C] | ΔTm (Calf thymus DNA [16]) [°C] | log Ks [17] | log Ks (Calf thymus DNA [18]) | Activity [19] [%] | solubility [20] [µg/mL] | other results |
| --- | --- | --- | --- | --- | --- | --- | --- | --- | --- | --- | --- | --- | --- | --- | --- | --- | --- | --- | --- | --- | --- |
| Nc1ccc2nc(-c3ccc(C4=NCCN4)cc3)sc2c1 | 1.3 | 53.1 | 5.19 | 38.1 | 5.23 | 29.5 | 4.43 | 17.5 | 5.1 | 41.1 | 28.6 | 4.94 | 16.5 | 4.83 | 2.1 | 0 | 5.61 | 4.77 | 23.9 | – | – |
| N=C(N)c1ccc2nc(-c3ccc(N)cc3)sc2c1 | 1.3 | 71.6 | 5.09 | 45.6 | 4.57 | 23 | 4.81 | 16.3 | 4.5 | 39.8 | 23.4 | 4.55 | 13.6 | 4.3 | 2.8 | 0.7 | 4.85 | 4.46 | 20.3 | – | – |
| N=C(N)c1ccc(-c2nc3ccc(N)cc3s2)cc1 | 1 | 45.5 | 5.04 | 42.2 | 4.19 | 24.3 | 5.15 | 14.7 | 4.4 | 37.5 | 33.5 | 4.5 | 13 | 3.99 | 2 | 0 | 4.6 | 4.48 | 25.3 | – | – |
| Cl.N=C(N)c1ccc(-c2nc3ccc(N)cc3s2)cc1.O | – | – | – | – | – | – | – | – | – | – | – | – | – | – | – | – | – | – | – | 700 | – |
| Nc1ccc(-c2nc3ccc(C4=NCCN4)cc3s2)cc1 | 3.9 | 55.5 | 5.41 | 37.1 | 5.11 | 22.2 | 4.77 | 18.3 | 4.89 | 42.5 | 30.8 | 5.44 | 16.3 | 5.6 | 2.7 | 0.7 | 6.46 | 5.23 | 30 | – | – |
| CS(=O)(=O)O.Nc1ccc(-c2nc3ccc(C4=NCCN4)cc3s2)cc1 | – | – | – | – | – | – | – | – | – | – | – | – | – | – | – | – | – | – | – | 130000 | GI50 (HeLa): 16600 nM; GI50 [21]: 1400 nM; GI50 [22]: 1400 nM; GI50 [23]: 3200 nM; GI50 (SW-620): 1100 nM; GI50 [24]: 500 nM; LD50 (Mus musculus): 175; GI50 (MCF7): 11300 nM |
| CS(=O)(=O)O.N=C(N)c1ccc(-c2nc3ccc(N)cc3s2)cc1 | – | – | – | – | – | – | – | – | – | – | – | – | – | – | – | – | – | – | – | 12500 | GI50 (HeLa): 21000 nM; GI50 [21]: 9700 nM; GI50 [22]: 1600 nM; GI50 [23]: 2800 nM; GI50 (SW-620): 3500 nM; GI50 [24]: 300 nM; LD50 (Mus musculus): 31.5; GI50 (MCF7): 1800 nM |
| Cl.Nc1ccc2nc(-c3ccc(C4=NCCN4)cc3)sc2c1.O | – | – | – | – | – | – | – | – | – | – | – | – | – | – | – | – | – | – | – | 600 | – |
| CS(=O)(=O)O.N=C(N)c1ccc2nc(-c3ccc(N)cc3)sc2c1.O | – | – | – | – | – | – | – | – | – | – | – | – | – | – | – | – | – | – | – | 1100 | GI50 (HeLa): 17500 nM; GI50 [21]: 8500 nM; GI50 [22]: 6100 nM; GI50 [23]: 2200 nM; GI50 (SW-620): 4700 nM; GI50 [24]: 3200 nM; LD50 (Mus musculus): 26.1; GI50 (MCF7): 15100 nM |
| CS(=O)(=O)O.Nc1ccc2nc(-c3ccc(C4=NCCN4)cc3)sc2c1 | – | – | – | – | – | – | – | – | – | – | – | – | – | – | – | – | – | – | – | 145000 | GI50 (HeLa): 17900 nM; GI50 [21]: 1100 nM; GI50 [22]: 1400 nM; GI50 [23]: 2300 nM; GI50 (SW-620): 1200 nM; GI50 [24]: 400 nM; LD50 (Mus musculus): 74.7; GI50 (MCF7): 6700 nM |
| Cl.N=C(N)c1ccc2nc(-c3ccc(N)cc3)sc2c1.O | – | – | – | – | – | – | – | – | – | – | – | – | – | – | – | – | – | – | – | 3300 | – |
| Cl.Nc1ccc(-c2nc3ccc(C4=NCCN4)cc3s2)cc1.O | – | – | – | – | – | – | – | – | – | – | – | – | – | – | – | – | – | – | – | 200 | – |
